The data set in a line: Solid-state stability of amorphous form at ambient conditions. The class given is physicochemical. The note with it: amorphous form prepared by solidification, from solution or lyophilization.

Each structure is given as a SMILES string.

Regarding `O=C(O)CCCNC(=O)c1ccc(Cl)cc1O` [amorphous form, sodium 4-[(4-chloro-2-hydroxybenzoyl)amino]butanoate], the “stability at ambient conditions” value was “unstable at ambient conditions and transforms to Form II”.

Source of the values: patent US7208178B2, “Polymorphs of sodium 4-[(4-chloro-2-hydroxybenzoyl) amino] butanoate” (Emisphere Technologies, Inc., priority 2000, dated 2007).
